Laboratory results as given in ChEMBL document CHEMBL1144812, “Small molecules with structural similarities to siderophores as novel antimicrobials against Mycobacterium tuberculosis and Yersinia pestis” (Bioorg Med Chem Lett, 2008).

How the values were obtained:
[1] = biological target: T1, AMP-binding enzyme family protein (Yersinia pestis, UniProt Q56950); experiment: Inhibition of Yersinia pestis YbtE assessed as incorporation of [3H]salicyl group to HMWP2 protein
T1 sequence (Q56950 whole entry): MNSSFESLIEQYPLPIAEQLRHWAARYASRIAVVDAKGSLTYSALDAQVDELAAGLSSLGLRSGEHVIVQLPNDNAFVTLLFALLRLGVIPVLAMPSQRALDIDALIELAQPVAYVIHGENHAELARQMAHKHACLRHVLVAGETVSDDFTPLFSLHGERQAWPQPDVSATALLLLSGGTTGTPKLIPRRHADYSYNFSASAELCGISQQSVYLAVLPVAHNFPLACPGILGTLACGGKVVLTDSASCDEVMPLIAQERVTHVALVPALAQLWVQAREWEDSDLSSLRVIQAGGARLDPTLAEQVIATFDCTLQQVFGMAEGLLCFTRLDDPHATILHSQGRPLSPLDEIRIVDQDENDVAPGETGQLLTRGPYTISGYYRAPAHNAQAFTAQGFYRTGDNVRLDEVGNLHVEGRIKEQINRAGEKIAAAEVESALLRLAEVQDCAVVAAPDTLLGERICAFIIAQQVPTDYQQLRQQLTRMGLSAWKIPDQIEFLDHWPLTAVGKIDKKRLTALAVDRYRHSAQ

[2] = tested on: Mycobacterium tuberculosis; experiment: Antimycobacterial activity against Mycobacterium tuberculosis H37Rv in presence of iron rich GAST-D medium; format: functional, organism-based
[3] = tested on: Mycobacterium tuberculosis; experiment: Antimycobacterial activity against Mycobacterium tuberculosis H37Rv in presence of iron deficient GAST-D medium; format: functional, organism-based
[4] = tested on: Mycobacterium tuberculosis; experiment: Ratio of MIC90 for Mycobacterium tuberculosis H37Rv in iron rich GAST-D medium to MIC90 for Mycobacterium tuberculosis H37Rv in presence of iron limiting GAST-D medium; format: functional
Yersinia pestis [5] = experiment: Antimicrobial activity against Yersinia pestis KIM6-2082.1+ in presence of iron rich PMH-D medium; format: functional, organism-based
Yersinia pestis [6] = experiment: Antimicrobial activity against Yersinia pestis KIM6-2082.1+ in presence of iron limiting PMH-D medium; format: functional, organism-based
Yersinia pestis [7] = experiment: Ratio of MIC90 for Yersinia pestis KIM6-2082.1+ in iron rich PMH-D medium to MIC90 for Yersinia pestis KIM6-2082.1+ in presence of iron limiting PMH-D medium; format: functional
[8] = Cytotoxicity against human HeLa cells after 24 hrs; format: cell-based; details: read-out: CD50

| Compound | IC50 [1] [µM] | IC50 [2] [µM] | MIC90 [2] [µM] | IC50 [3] [µM] | MIC90 [3] [µM] | Ratio [4] | IC50 (Yersinia pestis [5]) [µM] | MIC90 (Yersinia pestis [5]) [µM] | IC50 (Yersinia pestis [6]) [µM] | MIC90 (Yersinia pestis [6]) [µM] | Ratio (Yersinia pestis [7]) | CC50 at 24 h [8] [µM] |
| --- | --- | --- | --- | --- | --- | --- | --- | --- | --- | --- | --- | --- |
| COc1ccccc1NC(=S)N1N=C(c2ccc(O)cc2O)C[C@H]1c1ccc(O)cc1 | 0.6 | 156 | 250 | 80 | 125 | 2 | > 150 | > 150 | 0.7 | 3 | >50 | 23 |
| Oc1ccccc1C1=NN(C(=S)Nc2ccccc2)[C@H](c2ccccc2O)C1 | 0.6 | 65 | 100 | 29 | 83 | 1 | > 19 | > 19 | 0.7 | 2 | >10 | 3 |
| COc1ccc(NC(=S)N2N=C(c3ccccc3O)C[C@H]2c2ccccc2O)cc1 | 0.2 | 167 | > 250 | 28 | 63 | >4 | > 2 | > 2 | 1 | 3 | >0.7 | 1 |
| COc1cc([C@@H]2CC(c3ccccc3O)=NN2C(=S)Nc2ccccc2C)ccc1O | 1 | 96 | > 500 | 101 | 417 | >1 | > 19 | > 19 | 3 | 9 | >2 | 15 |
| Oc1ccccc1C1=NN(C(=S)Nc2ccccc2)[C@H](c2ccco2)C1 | 0.3 | 72 | 208 | 73 | 250 | 1 | > 9 | > 9 | 1 | 2 | >5 | 3 |
| Cc1ccc(NC(=S)N2N=C(c3ccccc3O)C[C@H]2c2ccccc2O)cc1 | 0.5 | 208 | > 250 | 27 | 63 | >4 | > 9 | > 9 | 0.8 | 2 | >5 | 11 |
| COc1cc([C@@H]2CC(c3ccc(O)cc3O)=NN2C(=S)Nc2ccccc2)ccc1O | 0.7 | 333 | > 500 | 84 | 125 | >4 | > 150 | > 150 | 0.6 | 2 | >75 | 30 |
| Cc1ccccc1NC(=S)N1N=C(c2ccccc2O)C[C@H]1c1ccc(O)cc1 | 0.7 | 83 | 417 | 29 | 63 | 7 | > 19 | > 19 | 3 | 5 | >4 | 21 |
| Cc1ccccc1NC(=S)N1N=C(c2ccccc2O)C[C@H]1c1ccccc1O | 1 | 42 | > 500 | 28 | 104 | >5 | > 19 | > 19 | 2 | 5 | >4 | 17 |
| COc1ccc(NC(=S)N2N=C(c3ccc(O)cc3O)C[C@H]2c2ccc(O)cc2)cc1 | > 12.5 | 250 | > 500 | 63 | 167 | >3 | > 150 | > 150 | 0.4 | 5 | >30 | 62 |
